How the values were obtained:
[1] = Seven-day oral dose range rat toxicity study; assay type: in vivo
Procedure: Male Crl:CD rats (9 wk old, weighing 316.8–349.4 g on d 1; Charles River) were administered 1 oral dose of NDD-825.HCl in water that contained 0.5% (w/v) hydroxypropylmethylcellulose K15M, 0.5% (v/v) benzyl alcohol, and 0.4% (v/v) Tween-80 at 20, 90, or 300 mg/kg at a dose volume of 10 ml/kg for 7 consecutive days (4 animals per group). Blood samples were collected before and at time points during the 24 h that followed for bioanalysis. Animals were monitored for adverse clinical signs and body weight. Terminal blood samples were taken for clinical chemistry, and organs were harvested for microscopic examination (see Supplemental Data for full details). Three additional male rats per group received NDD-825.HCl on d 1 only to collect blood samples for plasma bioanalysis of compound toxicokinetics. NDD-825 was quantifiable in plasma of all animals up to 8 h after dose administration; […]. Systemic exposure to NDD-825 in terms of Cmax increased in approximate proportion with increasing dose, whereas for the same dose increase, AUC0-t increased in a supraproportional manner across the entire dose range. […]. […] Study was carried out by Aptuit (Verona, Italy).

[2] = molecular target: CYP2D6 (Homo sapiens, UniProt P10635); experiment: P450 in vitro clearance, recombinant Supersomes; assay type: in vitro ADME; settings: 2 μM, hydrochloride salts used; one value printed for CYP2D6 and CYP2E1
Sequence of CYP2D6 (P10635 whole entry, canonical isoform): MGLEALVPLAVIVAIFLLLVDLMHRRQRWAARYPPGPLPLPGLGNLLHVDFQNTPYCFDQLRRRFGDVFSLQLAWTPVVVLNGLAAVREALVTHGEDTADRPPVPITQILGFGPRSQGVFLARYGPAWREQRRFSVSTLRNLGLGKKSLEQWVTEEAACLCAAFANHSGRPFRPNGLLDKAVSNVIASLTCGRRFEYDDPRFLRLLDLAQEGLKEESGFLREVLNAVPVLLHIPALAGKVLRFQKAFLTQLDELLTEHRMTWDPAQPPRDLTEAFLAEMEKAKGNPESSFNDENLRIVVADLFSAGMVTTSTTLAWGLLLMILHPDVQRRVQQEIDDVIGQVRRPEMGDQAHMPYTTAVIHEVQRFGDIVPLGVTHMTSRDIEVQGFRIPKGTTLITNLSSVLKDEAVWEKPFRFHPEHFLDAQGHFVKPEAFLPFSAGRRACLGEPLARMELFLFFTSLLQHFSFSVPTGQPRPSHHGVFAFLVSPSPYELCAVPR
Procedure: (§1) NDD-713.HCl and -825.HCl (2 μM) and cytochrome P450 (P450) reference substrates (see Supplemental Data for full details) were incubated (37°C) with selected recombinant human P450 isoforms (CYP1A2, CYP2A6, CYP2B6, CYP2C8, CYP2C9, CYP2C19, CYP2D6 CYP2E1, and CYP3A4) in heterologously expressed P450 Supersomes (BD Biosciences) that were suspended in […] Tris-HCl buffer (pH 7.4; for CYP2C9) or 100 mM phosphate buffer (pH 7.4; for the other isoforms) at final P450 concentrations of 85 pmol/ml. Reactions were initiated by additions of an NADPH-regenerating system and quenched at time points over 60 min (reference probes) or 120 min (test compounds) by acetonitrile. Quenched samples were centrifuged and supernatants were collected. NDD-713, -825, and probe metabolites were determined by UPLC-MS relative to calibration standards prepared in quenched matrix, and %substrate that remained was calculated relative to the initial sample concentration. The %substrate that remained vs. time was fitted to exponential decay functions to determine the pseudo first-order rate constant (k/min) for substrate depletion. These were normalized to P450 concentrations (pmol/ml) to obtain in vitro CLint values: CLint, in vitro (μl/min/pmol P450) = [k (min^−1)/P450 concentration […]] × 1000. Studies were carried out by CDCO.

[3] = molecular target: T1, CYP2E1 (Homo sapiens, UniProt P05181); experiment: P450 in vitro clearance, recombinant Supersomes; assay type: in vitro ADME; settings: 2 μM, hydrochloride salts used; one value printed for CYP2D6 and CYP2E1
T1 construct: purchased BD Biosciences
T1 sequence (P05181 whole entry): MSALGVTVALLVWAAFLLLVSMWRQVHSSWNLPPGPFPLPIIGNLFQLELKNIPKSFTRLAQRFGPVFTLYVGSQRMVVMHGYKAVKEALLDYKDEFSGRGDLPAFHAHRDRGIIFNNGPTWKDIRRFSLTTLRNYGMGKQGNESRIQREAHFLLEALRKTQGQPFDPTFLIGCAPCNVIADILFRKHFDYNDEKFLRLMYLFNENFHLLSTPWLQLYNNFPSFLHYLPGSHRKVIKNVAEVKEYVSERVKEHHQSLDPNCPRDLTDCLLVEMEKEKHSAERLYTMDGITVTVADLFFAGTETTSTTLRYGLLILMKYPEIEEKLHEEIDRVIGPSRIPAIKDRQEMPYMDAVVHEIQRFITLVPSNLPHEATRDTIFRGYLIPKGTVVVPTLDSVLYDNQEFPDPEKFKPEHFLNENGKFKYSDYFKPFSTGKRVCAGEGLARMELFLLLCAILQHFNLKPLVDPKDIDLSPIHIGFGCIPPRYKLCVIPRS
Procedure: as §1

[4] = molecular target: T2, CYP2A6 (Homo sapiens, UniProt P11509); experiment: P450 in vitro clearance, recombinant Supersomes; assay type: in vitro ADME; settings: 2 μM, hydrochloride salts used
T2 construct: purchased BD Biosciences
T2 sequence (P11509 whole entry): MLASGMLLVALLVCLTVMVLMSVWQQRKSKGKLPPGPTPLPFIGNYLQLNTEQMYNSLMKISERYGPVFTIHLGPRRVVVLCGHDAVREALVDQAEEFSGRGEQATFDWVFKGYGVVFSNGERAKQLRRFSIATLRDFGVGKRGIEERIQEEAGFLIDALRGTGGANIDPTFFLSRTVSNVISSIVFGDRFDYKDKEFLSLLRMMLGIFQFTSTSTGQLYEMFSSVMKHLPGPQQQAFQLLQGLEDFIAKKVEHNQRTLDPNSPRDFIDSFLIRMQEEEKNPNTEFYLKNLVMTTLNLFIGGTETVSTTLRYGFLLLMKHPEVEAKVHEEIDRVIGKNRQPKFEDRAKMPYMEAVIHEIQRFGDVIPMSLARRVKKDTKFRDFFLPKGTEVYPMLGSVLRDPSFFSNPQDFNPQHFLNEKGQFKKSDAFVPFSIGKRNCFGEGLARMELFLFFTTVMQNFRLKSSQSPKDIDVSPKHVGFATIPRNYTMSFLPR
Procedure: as §1

Compound | Tolerability ([1]; 300 mg/kg once daily p.o. for 7 d (highest dose tested)) | Change in triglycerides ([1]; 7-d repeat oral dosing, top dose) | MTD at 7 d ([1]; male, Crl:CD, in vivo, 7-d repeat oral dosing, read-out: Maximum tolerated dose) [mg/kg/day] | Tmax ([1]; male, Crl:CD, plasma, oral 20, 90 or 300 mg/kg, read-out: tmax (toxicokinetics)) [h] | Increase of AUC0-t for a 15-fold increase in dose ([1]; oral, 20 to 300 mg/kg/d) [fold] | Increase of Cmax for a 15-fold increase in dose ([1]; oral, 20 to 300 mg/kg/d) [fold] | P450 in vitro clearance CLint, CYP2D6 [2] [μl/min/pmol P450] | P450 in vitro clearance CLint, CYP2E1 [3] [μl/min/pmol P450] | P450 in vitro clearance CLint, CYP2A6 [4] [μl/min/pmol P450]
O=C1NCc2cc(OCCNC[C@H](O)COc3ccc4c(c3)OC[C@@H](COCC3CC3)O4)ccc21 [NDD-825] | well tolerated | dose-related increase in triglycerides | > 300 | 2 to 8 | 31.4 | 12.4 | 0.02 | 0.02 | 
NC(=O)c1ccc(OCCNC[C@H](O)COc2ccc3c(c2)OC[C@@H](COCC2CC2)O3)cc1 [NDD-713] |  |  |  |  |  |  |  |  | 0.02
